Consider six molecules from publication PMC9917560, “Design, Synthesis and Antimicrobial Evaluation of New N-(1-Hydroxy-1,3-dihydrobenzo[c][1,2]oxaborol-6-yl)(hetero)aryl-2-carboxamides as Potential Inhibitors of Mycobacterial Leucyl-tRNA Synthetase” (International Journal of Molecular Sciences, 2023).

Data set [1] concerns Mtb H37Rv. Also on record: method as in PMID 27503647. The following applies: compounds synthesized and evaluated by Palencia et al. ref [13]; cited from earlier work.
Data set [2] has as its system Klebsiella pneumoniae CCM 4415 (ATCC 10031). Kind of data set: Antibacterial microdilution broth (EUCAST). The following applies: Klebsiella pneumoniae, read-out: MIC Klebsiella pneumoniae. In kind it is cell-based. A general note: In broth dilution the organism is exposed to a series of concentrations in liquid medium.
In data set [3] the test system is Pseudomonas aeruginosa CCM 3955 (ATCC 27853). Kind of data set: Antibacterial microdilution broth (EUCAST). In kind it is cell-based. The following applies: read-out: MIC Pseudomonas aeruginosa.
The subject of data set [4] is HepG2 cell line. Kind of data set: Cytotoxicity screening, CellTiter 96 assay. Particulars: Homo sapiens, HepG2, 24 h, read-out: IC50 HepG2.
Data set [5] deals with methicillin-resistant Staphylococcus aureus subsp. aureus (MRSA) CCM 4750 (ATCC 43300). Kind of data set: microbe, parasite or virus in culture. The following applies: read-out: MIC Methicillin-resistant Staphylococcus aureus subsp. aureus. In kind it is cell-based.
The subject of data set [6] is Lichtheimia corymbifera CCM 8077. Kind of data set: Antifungal microdilution broth (EUCAST). In kind it is cell-based. The following applies: Lichtheimia corymbifera, CCM8077, read-out: MIC Lichtheimia corymbifera.
For data set [7], the system named is Enterococcus faecalis CCM 4224 (ATCC 29212). Kind of data set: Antibacterial microdilution broth (EUCAST). In kind it is cell-based. Particulars: read-out: MIC Enterococcus faecalis.
For data set [8], the system named is Mycobacterium tuberculosis H37Ra ITM-M006710 (ATCC 9431). Kind of data set: Antimycobacterial microdilution (resazurin) vs Mtb H37Ra. In kind it is cell-based. The following applies: Middlebrook 7H9, resazurin, recalculated from µg/mL, read-out: MIC Mtb H37Ra.
For data set [9], the system named is Candida albicans CCM 8320 (ATCC 24433). Kind of data set: Antifungal microdilution broth (EUCAST). In kind it is cell-based. The following applies: Candida albicans, read-out: MIC Candida albicans.
Data set [10] has as its system Trichophyton interdigitale CCM 8377 (ATCC 9533). Kind of data set: Antifungal microdilution broth (EUCAST). In kind it is cell-based. Particulars: Trichophyton interdigitale, read-out: MIC Trichophyton interdigitale.
Data set [11] relates to Aspergillus flavus CCM 8363. Kind of data set: Antifungal microdilution broth (EUCAST). In kind it is cell-based. Particulars: Aspergillus flavus, CCM8363, read-out: MIC Aspergillus flavus.
The test system of data set [12] is Candida tropicalis CCM 8264 (ATCC 750). Kind of data set: Antifungal microdilution broth (EUCAST). In kind it is cell-based. Particulars: read-out: MIC Candida tropicalis.
Data set [13] has as its system Mycobacterium kansasii DSM 44,162 (ATCC 12478). Kind of data set: Antimycobacterial microdilution (resazurin) vs M. kansasii. In kind it is cell-based. The following applies: Middlebrook 7H9, resazurin, read-out: MIC M. kansasii.
Data set [14] has as its system Mycolicibacterium aurum DSM 43,999 (ATCC 23366). Kind of data set: Antimycobacterial microdilution (resazurin) vs M. aurum. The following applies: Middlebrook 7H9, resazurin, read-out: MIC M. aurum. In kind it is cell-based.
Data set [15] deals with Aspergillus fumigatus ATCC 204305. Kind of data set: Antifungal microdilution broth (EUCAST). In kind it is cell-based. Particulars: Aspergillus fumigatus, ATCC204305, read-out: MIC Aspergillus fumigatus.
Data set [16] has as its system Acinetobacter baumannii DSM 30007 (ATCC 19606). Kind of data set: Antibacterial microdilution broth (EUCAST). In kind it is cell-based. The following applies: read-out: MIC Acinetobacter baumannii.
Data set [17] relates to Candida krusei CCM 8271 (ATCC 6258). Kind of data set: Antifungal microdilution broth (EUCAST). In kind it is cell-based. The following applies: Pichia kudriavzevii, read-out: MIC Candida krusei.
The subject of data set [18] is Mtb MATI (MDR clinical isolate). Kind of data set: microbe, parasite or virus in culture. In kind it is cell-based. The following applies: Mycobacterium tuberculosis, read-out: MIC Mtb MATI.
The test system of data set [19] is Escherichia coli CCM 3954 (ATCC 25922). Kind of data set: Antibacterial microdilution broth (EUCAST). In kind it is cell-based. The following applies: Escherichia coli, read-out: MIC Escherichia coli.
Data set [20] has as its system Mycobacterium tuberculosis H37Rv CNCTC My 331/88 (ATCC 27294). Kind of data set: Microplate Alamar Blue assay vs Mtb H37Rv. In kind it is cell-based. The following applies: Mycobacterium tuberculosis, pH 6.6, MABA, Middlebrook 7H9 pH 6.6, recalculated from µg/mL; read-out: MIC Mtb H37Rv.
For data set [21], the system named is Mtb IZAK (MDR clinical isolate). Kind of data set: microbe, parasite or virus in culture. In kind it is cell-based. The following applies: Mycobacterium tuberculosis, read-out: MIC Mtb IZAK.
In data set [22] the test system is Staphylococcus epidermidis CCM 4418 (ATCC 12228). Kind of data set: Antibacterial microdilution broth (EUCAST). In kind it is cell-based. The following applies: read-out: MIC Staphylococcus epidermidis.
The subject of data set [23] is Mycobacterium avium DSM 44,156 (ATCC 25291). Kind of data set: Antimycobacterial microdilution (resazurin) vs M. avium. In kind it is cell-based. The following applies: Mycobacterium avium, Middlebrook 7H9, resazurin; read-out: MIC M. avium.
For data set [24], the system named is Mycolicibacterium smegmatis DSM 43,465 (ATCC 607). Kind of data set: Antimycobacterial microdilution (resazurin) vs M. smegmatis. In kind it is cell-based. Particulars: Middlebrook 7H9, resazurin, read-out: MIC M. smeg.
Data set [25] concerns Candida parapsilosis CCM 8260 (ATCC 22019). Kind of data set: Antifungal microdilution broth (EUCAST). In kind it is cell-based. The following applies: Lodderomyces parapsilosis, read-out: MIC Candida parapsilosis.
Data set [26] has as its system Staphylococcus aureus subsp. aureus CCM 4223 (ATCC 29213). Kind of data set: Antibacterial microdilution broth (EUCAST). In kind it is cell-based. The following applies: read-out: MIC Staphylococcus aureus subsp. aureus.
Data set [27] has as its system Mtb laboratory ID IZAK. In kind it is cell-based, Mycobacterium tuberculosis. Particulars: strain IZAK; for Susceptibility: CLSI breakpoints 2020.
Data set [28] deals with Mtb laboratory ID MATI. In kind it is cell-based, Mycobacterium tuberculosis. Particulars: strain MATI; for Concentration: CLSI 2021; for Susceptibility: CLSI breakpoints 2021.
Data set [29] has as its system Mtb LeuRS. Set-up: method as in PMID 27503647, PMID 28953378. The following applies: ref [13],[14]; read-out: IC50 against LeuRS; cited from earlier work.

Values after ≈ are worked out from the molar mass of the structure shown. Like-named read-outs stand apart in the source and are kept apart here. Marks after values point to notes of the source that are not given here.

For the molecule “3-aminomethylbenzoxaborole [Compound C00022]”, in [1], the “MIC Mtb H37Rv” value was 11.04 * µM.

The IC50 is the concentration that inhibits the measured activity by half. Usually melting point stands for the temperature, or range, at which the solid turns liquid. For the molecule `O=C(Nc1ccc2c(c1)B(O)OC2)c1cnc(Cl)cn1` [Compound 5, 5-chloro-N-(1-hydroxy-1,3-dihydrobenzo[c][1,2]oxaborol-6-yl)pyrazine-2-carboxamide], the melting point was 233.8 to 235.3 °C. Further, in data set [2] (24h incubation), the MIC is over 500 µM. For the same molecule, in [2] (48h incubation), the MIC was over 500 µM. Moreover, the MIC in data set [3] (24h incubation) was over 500 µM. The MIC in data set [3] (48h incubation) is over 500 µM. Moreover, in data set [4], the IC50 worked out at 82.4 µM. In data set [5] (24 h), the MIC is over 500 µM. Further, in [5] (48 h), the MIC was over 500 µM. In [6] (24h incubation), the MIC is over 500 µM. For the same molecule, the MIC in [6] (48h incubation) was over 500 µM. For the same molecule, in data set [7] (24h incubation), the MIC was over 500 µM. Also, in data set [7] (48h incubation), the MIC was over 500 µM. The MIC in data set [8] is 27 µM (≈ 7.81 µg/mL). Besides, in [9] (24h incubation), the MIC is over 500 µM. Also, the MIC in [9] (48h incubation) was over 500 µM. Further, the MIC in data set [10] (72h incubation) was over 500 µM. For the same molecule, the MIC in data set [10] (120h incubation) is over 500 µM. The MIC in [11] (24h incubation) was over 500 µM. Also, the MIC in [11] (48h incubation) was over 500 µM. In addition, the MIC in [12] (24h incubation) is over 500 µM. In addition, in data set [12] (48h incubation), the MIC was over 500 µM. In addition, the MIC in [13] came to 108 µM (≈ 31.3 µg/mL). Further, the MIC in [14] stood at 13.5 µM (≈ 3.91 µg/mL). In addition, the MIC in data set [15] (24h incubation) is over 500 µM. Also, the MIC in data set [15] (48h incubation) is over 500 µM. In data set [16] (24h incubation), the MIC is over 500 µM. Besides, in data set [16] (48h incubation), the MIC was over 500 µM. For the same molecule, the MIC in data set [17] (24h incubation) was over 500 µM. Also, the MIC in data set [17] (48h incubation) is over 500 µM. In data set [18], the MIC was found to be 43.2 µM (≈ 12.5 µg/mL). In addition, the MIC in data set [19] (24h incubation) is over 500 µM. Besides, the MIC in data set [19] (48h incubation) is over 500 µM. The MIC in [20] was 21.6 µM (≈ 6.25 µg/mL). Further, the MIC in data set [21] turned out to be 43.2 µM (≈ 12.5 µg/mL). Besides, in [22] (24h incubation), the MIC was over 500 µM. For the same molecule, in data set [22] (48h incubation), the MIC was over 500 µM. Besides, the MIC in data set [23] was found to be 54 µM (≈ 15.6 µg/mL). Further, the MIC in data set [24] worked out at 54 µM (≈ 15.6 µg/mL). The MIC in data set [25] (24h incubation) is over 500 µM. The MIC in data set [25] (48h incubation) is over 500 µM. Further, the MIC in data set [26] (24h incubation) is over 500 µM. Besides, the MIC in data set [26] (48h incubation) is over 500 µM.

On to `OB1OCc2ccccc21` [Compound C00021, (3H)-Benzo[c][1,2]oxaborol-1-ol], for which, in [1], the “MIC Mtb H37Rv” value was 55.99 * µM.

For `CC[C@@H](CO)NCCN[C@@H](CC)CO` [EMB, ethambutol], the Concentration in data set [27] (CLSI 2020) and in [28] was 2.45 µM in each case. Further, the Susceptibility entry in data set [27] and in [28] was “sensitive” in each case. The results for the MIC in [18], in data set [20] and in data set [21] were 7.64 µM (≈ 1.56 µg/mL), 1.91 µM (≈ 0.39 µg/mL) and 7.64 µM (≈ 1.56 µg/mL), respectively.

For the molecule `NC[C@H]1OB(O)c2c(OCCO)ccc(Cl)c21` [GSK656, (S)-3-(Aminomethyl)-4-chloro-7-(2hydroxyethoxy)benzo c 1,2 oxaborol-1(3 H)-ol], the IC50 in data set [29] was 0.2 µM.

Take `NNC(=O)c1ccncc1` [INH, isoniazid, reference compound]: the Susceptibility result in data set [27] and in [28] was “resistant” throughout. The MIC in [8] is 3.65 µM (≈ 0.501 µg/mL); in [13], 45.6 µM (≈ 6.25 µg/mL); in [14] it was 28.5 µM (≈ 3.91 µg/mL); in data set [18], over 91.2 µM; in [20] it was 2.84 µM (≈ 0.389 µg/mL); in data set [21] it was 91.2 µM (≈ 12.5 µg/mL). Besides, the MIC in data set [23] stood at 7290 µM (≈ 1000 µg/mL); in data set [24] it was 228 µM (≈ 31.3 µg/mL). In [28], this molecule showed a Concentration of over 58.33 µM.
